From patent US11884661B2, “3-substituted propionic acids as αV integrin inhibitors” (BRISTOL-MYERS SQUIBB COMPANY, priority 2016, dated 2024)
Where a name gives a salt, the structure may show the parent alone.

Experiments:
[1] = target: T1, human αVβ6 (Homo sapiens, UniProt P06756+P18564); test: human αVβ6 HTRF binding assay; details: recombinant human αVβ6 integrin, FITC-conjugated fibronectin
T1 construct: purchased R & D systems 3817-AV
Procedure, shortened: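 Biotinylated recombinant αVβ6 (1.25 nM final) incubated with FITC-fibronectin (5 nM) 1 h at RT, then streptavidin-terbium (0.625 nM) added and incubated overnight at RT in the dark before HTRF read. Buffer: 20 mM Tris pH 7.4, 1 mM MgCl2, 1 mM MnCl2, 0.01% Tween 20, 0.01% BSA.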

[2] = target: human αVβ3 (Homo sapiens, UniProt P05106+P06756); test: human αVβ3 HTRF binding assay
Experimental: (§1) All binding assays used the HTRF (homogeneous time resolved fluorescence) technology from Cisbio International, therefore all assays are described as HTRF binding assays. The assay results for the Examples are listed above together with the characterization data. The HTRF binding assays are established for the following integrins: human αVβ6, human αVβ1, human αVβ3, human αVβ5, and human αVβ8. All assays used the following assay buffer: 20 mM Tris, pH 7.4, 1 mM MgCl2, 1 mM MnCl2, 0.01% Tween 20, and 0.01% BSA. Alternatively, a SPA-based assay was used for evaluation of receptor binding.
(§2) The following describes the components and a representative procedure for the human αVβ6 HTRF binding assay: Recombinant human αVβ6 Integrin (R & D systems, 3817-AV) was biotinylated. Biotinylated human αVβ6 Integrin was added to assay vessel at a final concentration of 1.25 nM. FITC-conjugated fibronectin (Cytoskeleton, FNR02) was then added at the final concentration of 5 nM. The mixture was centrifuged at 600 rpm for three minutes using Thermo Fisher Heraeus Multifuge X3 centrifuge and then incubated at RT for an hour. Streptavidin Terbium (Cisbio international 610STLB) was then added at the final concentration of 0.625 nM. The resulting mixture was centrifuged at 600 rpm for three minutes using Thermo Fisher Heraeus Multifuge X3 centrifuge and then incubated at room temperature overnight in dark before reading HTRF signals.

[3] = target: human αVβ5 (Homo sapiens, UniProt P06756+P18084); test: human αVβ5 HTRF binding assay
Experimental: as §1, with “binding. […]” for “binding.”

[4] = target: human αVβ8 (Homo sapiens, UniProt P06756+P26012); test: human αVβ8 HTRF binding assay
Experimental: as §1, with “binding. […]” for “binding.”

[5] = target: human αVβ1 (Homo sapiens, UniProt P05556+P06756); test: human αVβ1 HTRF binding assay
Experimental: as §1, §2

Sequence of human αVβ8 (P06756 31-992 limits assumed): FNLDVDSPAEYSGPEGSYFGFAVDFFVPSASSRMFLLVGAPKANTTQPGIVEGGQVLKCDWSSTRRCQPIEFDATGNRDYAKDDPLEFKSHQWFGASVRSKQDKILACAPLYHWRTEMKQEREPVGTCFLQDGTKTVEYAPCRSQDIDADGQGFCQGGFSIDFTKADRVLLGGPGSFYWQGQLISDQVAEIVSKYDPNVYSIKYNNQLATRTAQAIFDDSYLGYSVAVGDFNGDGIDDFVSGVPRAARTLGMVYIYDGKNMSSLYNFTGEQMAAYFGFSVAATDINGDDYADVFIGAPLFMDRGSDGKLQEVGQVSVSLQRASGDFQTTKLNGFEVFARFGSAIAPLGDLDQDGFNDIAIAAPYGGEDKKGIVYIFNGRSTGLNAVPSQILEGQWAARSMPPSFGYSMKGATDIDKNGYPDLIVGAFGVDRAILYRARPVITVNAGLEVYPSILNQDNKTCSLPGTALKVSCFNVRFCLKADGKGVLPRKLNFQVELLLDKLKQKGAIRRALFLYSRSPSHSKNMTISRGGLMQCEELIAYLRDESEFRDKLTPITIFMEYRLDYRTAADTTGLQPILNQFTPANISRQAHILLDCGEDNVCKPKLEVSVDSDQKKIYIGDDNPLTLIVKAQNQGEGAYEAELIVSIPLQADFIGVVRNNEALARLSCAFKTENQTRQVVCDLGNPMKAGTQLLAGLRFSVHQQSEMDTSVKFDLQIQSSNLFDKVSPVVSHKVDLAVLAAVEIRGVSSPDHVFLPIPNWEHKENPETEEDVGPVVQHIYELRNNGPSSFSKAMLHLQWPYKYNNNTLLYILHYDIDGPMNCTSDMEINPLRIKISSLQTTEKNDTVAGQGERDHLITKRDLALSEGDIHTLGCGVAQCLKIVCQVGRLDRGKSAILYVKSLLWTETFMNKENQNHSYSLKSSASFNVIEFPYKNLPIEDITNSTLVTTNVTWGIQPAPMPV
Sequence of human αVβ8 (P26012 43-684 limits assumed): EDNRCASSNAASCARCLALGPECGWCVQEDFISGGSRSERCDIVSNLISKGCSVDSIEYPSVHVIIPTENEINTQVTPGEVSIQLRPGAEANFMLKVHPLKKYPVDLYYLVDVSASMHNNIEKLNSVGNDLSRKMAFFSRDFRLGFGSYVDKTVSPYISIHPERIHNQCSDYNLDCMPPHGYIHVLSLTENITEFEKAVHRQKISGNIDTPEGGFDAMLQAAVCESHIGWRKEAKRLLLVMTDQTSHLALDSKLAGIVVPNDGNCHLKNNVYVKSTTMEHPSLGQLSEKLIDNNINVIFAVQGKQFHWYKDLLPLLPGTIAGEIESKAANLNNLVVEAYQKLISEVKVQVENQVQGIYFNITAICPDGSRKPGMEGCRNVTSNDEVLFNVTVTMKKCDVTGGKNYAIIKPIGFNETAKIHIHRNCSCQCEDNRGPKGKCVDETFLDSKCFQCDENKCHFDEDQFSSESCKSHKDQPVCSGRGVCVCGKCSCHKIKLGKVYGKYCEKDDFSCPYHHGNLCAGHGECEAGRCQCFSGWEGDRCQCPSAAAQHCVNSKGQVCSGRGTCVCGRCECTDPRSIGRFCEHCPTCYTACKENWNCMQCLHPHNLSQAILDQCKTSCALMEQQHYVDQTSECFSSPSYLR
Sequence of human αVβ3 (P06756 31-992 limits assumed): as the sequence (P06756 31-992 limits assumed) above
Sequence of human αVβ3 (P05106 27-718 limits assumed): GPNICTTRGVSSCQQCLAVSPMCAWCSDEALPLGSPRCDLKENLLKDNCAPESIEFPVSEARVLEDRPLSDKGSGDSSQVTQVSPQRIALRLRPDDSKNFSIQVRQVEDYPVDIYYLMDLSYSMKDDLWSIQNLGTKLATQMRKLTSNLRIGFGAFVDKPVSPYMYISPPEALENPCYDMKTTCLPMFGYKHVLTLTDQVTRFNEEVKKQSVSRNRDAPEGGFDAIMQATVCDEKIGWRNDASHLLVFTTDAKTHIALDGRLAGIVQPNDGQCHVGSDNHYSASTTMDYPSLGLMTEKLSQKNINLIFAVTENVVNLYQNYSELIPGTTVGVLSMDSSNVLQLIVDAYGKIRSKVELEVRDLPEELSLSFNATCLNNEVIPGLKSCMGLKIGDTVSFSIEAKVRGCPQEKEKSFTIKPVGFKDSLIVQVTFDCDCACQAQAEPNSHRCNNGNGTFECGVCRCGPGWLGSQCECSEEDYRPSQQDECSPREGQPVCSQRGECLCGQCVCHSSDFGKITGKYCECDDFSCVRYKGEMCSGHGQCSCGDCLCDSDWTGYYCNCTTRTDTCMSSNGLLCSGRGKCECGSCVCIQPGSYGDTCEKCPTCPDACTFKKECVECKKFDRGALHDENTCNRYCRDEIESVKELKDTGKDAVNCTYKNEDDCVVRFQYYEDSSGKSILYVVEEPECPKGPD
Sequence of human αVβ5 (P06756 31-992 limits assumed): as the sequence (P06756 31-992 limits assumed) above
Sequence of human αVβ5 (P18084 24-719 limits assumed): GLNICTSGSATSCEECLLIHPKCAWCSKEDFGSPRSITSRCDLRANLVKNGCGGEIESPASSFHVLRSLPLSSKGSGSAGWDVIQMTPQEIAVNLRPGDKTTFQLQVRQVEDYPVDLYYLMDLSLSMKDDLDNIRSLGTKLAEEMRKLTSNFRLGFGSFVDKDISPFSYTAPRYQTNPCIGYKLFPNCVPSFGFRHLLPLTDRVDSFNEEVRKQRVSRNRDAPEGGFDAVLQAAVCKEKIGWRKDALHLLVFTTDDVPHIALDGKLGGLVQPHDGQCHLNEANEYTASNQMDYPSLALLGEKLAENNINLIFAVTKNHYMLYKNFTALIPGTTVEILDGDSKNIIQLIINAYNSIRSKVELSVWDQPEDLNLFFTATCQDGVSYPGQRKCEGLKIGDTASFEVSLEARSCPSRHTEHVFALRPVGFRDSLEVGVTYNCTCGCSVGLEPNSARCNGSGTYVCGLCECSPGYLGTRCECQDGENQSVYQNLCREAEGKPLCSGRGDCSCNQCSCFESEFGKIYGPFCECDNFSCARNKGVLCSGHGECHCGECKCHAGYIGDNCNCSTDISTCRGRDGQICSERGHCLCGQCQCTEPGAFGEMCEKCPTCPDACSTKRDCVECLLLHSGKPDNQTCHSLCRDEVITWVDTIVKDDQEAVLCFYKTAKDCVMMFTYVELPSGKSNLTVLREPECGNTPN
T1 sequence (P06756 31-992 limits assumed): as the sequence (P06756 31-992 limits assumed) above
T1 sequence (P18564 22-707 limits assumed): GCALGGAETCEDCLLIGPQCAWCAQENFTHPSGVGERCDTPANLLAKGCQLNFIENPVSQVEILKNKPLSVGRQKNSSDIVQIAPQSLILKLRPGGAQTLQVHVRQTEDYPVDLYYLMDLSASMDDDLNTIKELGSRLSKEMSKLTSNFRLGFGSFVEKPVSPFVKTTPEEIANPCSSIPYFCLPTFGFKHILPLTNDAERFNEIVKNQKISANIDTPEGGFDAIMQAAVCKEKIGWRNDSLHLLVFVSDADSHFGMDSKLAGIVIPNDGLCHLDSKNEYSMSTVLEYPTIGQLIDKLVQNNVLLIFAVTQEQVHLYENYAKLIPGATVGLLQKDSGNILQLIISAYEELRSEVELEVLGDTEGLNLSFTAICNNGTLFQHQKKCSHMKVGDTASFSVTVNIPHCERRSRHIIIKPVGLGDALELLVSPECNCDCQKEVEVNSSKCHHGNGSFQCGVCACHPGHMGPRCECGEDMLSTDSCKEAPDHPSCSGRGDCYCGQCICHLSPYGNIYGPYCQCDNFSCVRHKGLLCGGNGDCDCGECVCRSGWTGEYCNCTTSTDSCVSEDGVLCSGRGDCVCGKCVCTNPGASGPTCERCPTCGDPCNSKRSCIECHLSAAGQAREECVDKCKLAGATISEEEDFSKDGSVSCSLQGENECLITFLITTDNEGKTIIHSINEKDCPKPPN
Sequence of human αVβ1 (P06756 31-992 limits assumed): as the sequence (P06756 31-992 limits assumed) above
Sequence of human αVβ1 (P05556 21-728 limits assumed): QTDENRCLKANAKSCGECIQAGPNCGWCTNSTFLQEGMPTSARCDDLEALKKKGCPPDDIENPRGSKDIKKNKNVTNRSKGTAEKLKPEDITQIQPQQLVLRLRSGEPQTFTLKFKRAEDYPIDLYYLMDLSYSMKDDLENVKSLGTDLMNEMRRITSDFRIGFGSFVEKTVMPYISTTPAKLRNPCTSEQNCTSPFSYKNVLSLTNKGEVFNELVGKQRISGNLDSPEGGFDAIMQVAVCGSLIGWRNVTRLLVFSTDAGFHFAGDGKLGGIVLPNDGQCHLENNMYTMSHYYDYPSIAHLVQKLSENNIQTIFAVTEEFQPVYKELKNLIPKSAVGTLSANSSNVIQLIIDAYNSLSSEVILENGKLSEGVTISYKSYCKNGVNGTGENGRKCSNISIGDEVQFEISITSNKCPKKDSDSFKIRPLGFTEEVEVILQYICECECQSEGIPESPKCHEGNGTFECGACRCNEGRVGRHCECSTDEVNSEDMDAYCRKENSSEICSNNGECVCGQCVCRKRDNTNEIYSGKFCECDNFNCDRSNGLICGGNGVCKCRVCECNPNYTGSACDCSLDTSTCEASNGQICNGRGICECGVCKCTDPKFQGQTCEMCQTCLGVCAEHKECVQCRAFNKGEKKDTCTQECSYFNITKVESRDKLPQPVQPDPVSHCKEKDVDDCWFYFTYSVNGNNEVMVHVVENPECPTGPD

SMILES | IC50 [1] | IC50 [2] | IC50 [3] | IC50 [4] | IC50 [5]
COc1ccc(C(CC(=O)O)n2ccc(CCCCc3ccc4c(n3)NCCC4)n2)cn1 (racemic) [Example 1, (±)-3-(6-Methoxypyridin-3-yl)-3-(3-(4-(5,6,7,8-tetrahydro-1,8-naphthyridin-2-yl)butyl)-1H-pyrazol-1-yl)propanoic acid] | 6 nM | 2.4 nM | 1.5 nM | 262 nM | –
COc1ccc(C(CC(=O)O)n2ccc(CCCc3ccc4c(n3)NCCC4)n2)cn1 (racemic) [Example 2, (±)-3-(6-Methoxypyridin-3-yl)-3-(3-(3-(5,6,7,8-tetrahydro-1,8-naphthyridin-2-yl)propyl)-1H-pyrazol-1-yl)propanoic acid] | 6.8 nM | 2.7 nM | 0.34 nM | 420 nM | –
CCOc1ncc(C(CC(=O)O)n2ccc(CCCc3ccc4c(n3)NCCC4)n2)cn1 (racemic) [Example 27, (±)-3-(2-Ethoxypyrimidin-5-yl)-3-(3-(3-(5,6,7,8-tetrahydro-1,8-naphthyridin-2-yl)propyl)-1H-pyrazol-1-yl)propanoic acid] | 9.4 nM | 2.3 nM | 0.76 nM | 1800 nM | 144 nM
O=C(O)CC(c1cnc2ccccc2c1)n1ccc(CCCc2ccc3c(n2)NCCC3)n1 (racemic) [Example 29, (±)-3-(Quinolin-3-yl)-3-(3-(3-(5,6,7,8-tetrahydro-1,8-naphthyridin-2-yl)propyl)-1H-pyrazol-1-yl)propanoic acid] | 11.2 nM | 1.7 nM | 6.5 nM | 2900 nM | 286 nM
O=C(O)CC(c1ccc2c(c1)CCO2)n1ccc(CCCc2ccc3c(n2)NCCC3)n1 (racemic) [Example 30, (±)-3-(2,3-Dihydrobenzofuran-5-yl)-3-(3-(3-(5,6,7,8-tetrahydro-1,8-naphthyridin-2-yl)propyl)-1H-pyrazol-1-yl)propanoic acid] | 5.7 nM | 11 nM | 230 nM | 2010 nM | 100 nM
Cc1cc(C)n(-c2cccc(C(CC(=O)O)n3ccc(CCCc4ccc5c(n4)NCCC5)n3)c2)n1 (racemic) [Example 31, (±)-3-(3-(3,5-Dimethyl-1H-pyrazol-1-yl)phenyl)-3-(3-(3-(5,6,7,8-tetrahydro-1,8-naphthyridin-2-yl)propyl)-1H-pyrazol-1-yl)propanoic acid] | 5.2 nM | 7.5 nM | – | 3300 nM | 63 nM
O=C(O)CC(c1cccc(N2CCOCC2)c1)n1ccc(CCCc2ccc3c(n2)NCCC3)n1 (racemic) [Example 32, (±)-3-(3-Morpholinophenyl)-3-(3-(3-(5,6,7,8-tetrahydro-1,8-naphthyridin-2-yl)propyl)-1H-pyrazol-1-yl)propanoic acid] | 4.3 nM | 5.5 nM | – | 2700 nM | 43 nM
COc1ccc(C(CC(=O)O)n2ccc(-c3cccc(-c4ccc5c(n4)NCCC5)c3)n2)cn1 (racemic) [Example 46, (±)-3-(6-Methoxypyridin-3-yl)-3-(3-(3-(5,6,7,8-tetrahydro-1,8-naphthyridin-2-yl)phenyl)-1H-pyrazol-1-yl)propanoic acid] | 28 nM | 14 nM | 11 nM | 8200 nM | –
COc1ccc(C(CC(=O)O)n2ccc(OCCCc3ccc4c(n3)NCCC4)n2)cn1 (racemic) [Example 48, (±)-3-(6-Methoxypyridin-3-yl)-3-(3-(3-(5,6,7,8-tetrahydro-1,8-naphthyridin-2-yl)propoxy)-1H-pyrazol-1-yl)propanoic acid] | 29 nM | 7.5 nM | 2.7 nM | – | –
COc1ccc(C(CC(=O)O)c2nc(CCCc3ccc4c(n3)NCCC4)cs2)cn1 (single isomer, unassigned) [Example 15, 3-(6-Methoxypyridin-3-yl)-3-(4-(3-(5,6,7,8-tetrahydro-1,8-naphthyridin-2-yl)propyl)thiazol-2-yl)propanoic acid] | 0.7 nM | 1.4 nM | – | 330 nM | 55 nM
COc1ccc(C(CC(=O)O)c2nc(CCCc3ccc4c(n3)NCCC4)cs2)cc1F (single isomer, unassigned) [Example 38, 3-(3-Fluoro-4-methoxyphenyl)-3-(4-(3-(5,6,7,8-tetrahydro-1,8-naphthyridin-2-yl)propyl)thiazol-2-yl)propanoic acid] | 2.1 nM | 2.3 nM | – | 860 nM | 66 nM
COc1ccc(C(CC(=O)O)c2ncc(CCCCc3ccc4c(n3)NCCC4)s2)cc1F (single isomer, unassigned) [Example 40] | 17 nM | 28 nM | 10 nM | 2600 nM | –
COc1cncc(C(CC(=O)O)n2nccc2CCCc2ccc3c(n2)NCCC3)c1 (single isomer, unassigned) [Example 63, 3-(5-methoxypyridin-3-yl)-3-(5-(3-(5,6,7,8-tetrahydro-1,8-naphthyridin-2-yl)propyl)-1H-pyrazol-1-yl)propanoic acid] | 13 nM | 8 nM | 0.87 nM | 770 nM | –
COc1cncc(C(CC(=O)O)n2ccc(CCCc3ccc4c(n3)NCCC4)n2)c1 (single isomer, unassigned) [Example 64, 3-(5-methoxypyridin-3-yl)-3-(3-(3-(5,6,7,8-tetrahydro-1,8-naphthyridin-2-yl)propyl)-1H-pyrazol-1-yl)propanoic acid] | 19 nM | 3.8 nM | – | 110 nM | –
COc1cncc(C(CC(=O)O)n2ccc(CCCc3ccc4c(n3)NCCC4)n2)c1 (single isomer, unassigned) [Example 65, 3-(5-methoxypyridin-3-yl)-3-(3-(3-(5,6,7,8-tetrahydro-1,8-naphthyridin-2-yl)propyl)-1H-pyrazol-1-yl)propanoic acid] | 410 nM | 4.3 nM | 1.1 nM | – | –
Cn1cc([C@H](CC(=O)O)n2ccc(CCCc3ccc4c(n3)NCCC4)n2)ccc1=O [Example 45, (S)-3-(1-Methyl-6-oxo-1,6-dihydropyridin-3-yl)-3-(3-(3-(5,6,7,8-tetrahydro-1,8-naphthyridin-2-yl)propyl)-1H-pyrazol-1-yl)propanoic acid ditrifluoroacetic acid salt] | 1.6 nM | 1.6 nM | – | 3020 nM | –
CCOC(=O)C[C@@H](c1ccc(OC)nc1)n1ccc(CCCc2ccc3c(n2)NCCC3)n1 [Example 47, Ethyl (S)-3-(6-methoxypyridin-3-yl)-3-(3-(3-(5,6,7,8-tetrahydro-1,8-naphthyridin-2-yl)propyl)-1H-pyrazol-1-yl)propanoate] | 11 nM | 1120 nM | 270 nM | – | –
Cc1ncc([C@H](CC(=O)O)n2ccc(CCCc3ccc4c(n3)NCCC4)n2)cn1 [Example 54, (S)-3-(2-Methylpyrimidin-5-yl)-3-(3-(3-(5,6,7,8-tetrahydro-1,8-naphthyridin-2-yl)propyl)-1H-pyrazol-1-yl)propanoic acid] | 18 nM | 7.3 nM | 0.99 nM | – | –
COc1ncc(C(CC(=O)O)c2nc(CCCc3ccc4c(n3)NCCC4)cs2)cn1 (stereo not shown) [Example 145, 3-(2-methoxypyrimidin-5-yl)-3-(4-(3-(5,6,7,8-tetrahydro-1,8-naphthyridin-2-yl)propyl)thiazol-2-yl)propanoic acid] | 4.5 nM | – | – | – | –
COc1ccc(C(CC(=O)O)c2csc(CCCc3ccc4c(n3)NCCC4)n2)cc1F (stereo not shown) [Example 153, 3-(3-fluoro-4-methoxyphenyl)-3-(2-(3-(5,6,7,8-tetrahydro-1,8-naphthyridin-2-yl)propyl)thiazol-4-yl)propanoic acid] | 54 nM | – | – | – | –
COc1ccc(C(CC(=O)O)c2nc(CCCc3ccc4c(n3)NCCC4)co2)cc1F (stereo not shown) [Example 178, 3-(3-fluoro-4-methoxyphenyl)-3-(4-(3-(5,6,7,8-tetrahydro-1,8-naphthyridin-2-yl)propyl)oxazol-2-yl)propanoic acid] | 1.4 nM | – | – | – | –
COc1ccc(C(CC(=O)O)c2nc(CCCCc3ccc4c(n3)NCCC4)c(C)o2)cc1F (stereo not shown) [Example 181, 3-(3-fluoro-4-methoxyphenyl)-3-(5-methyl-4-(4-(5,6,7,8-tetrahydro-1,8-naphthyridin-2-yl)butyl)oxazol-2-yl)propanoic acid] | 1060 nM | – | – | – | –
